Test results: PMC8273893 (Journal of Medicinal Chemistry, 2021)

Key:
Plasma stability = assay type: in vitro ADME; conditions: 5 μM, 50% human plasma in PBS, 1 h, 37 °C
[1] = Parallel artificial membrane permeability assay; assay type: in vitro ADME; conditions: 500 μM in donor, 20 h

Row | plasma stability (% remaining) (Plasma stability) | PAMPA (% flux) [1] | SMILES
1 | 74.2 % remaining | 40.9 % flux | O=C(O)c1ccc(OCc2c(-c3c(Cl)cccc3C(F)(F)F)noc2-c2cc[nH]c2)cc1 [Compound 3, 4-((3-(2-Chloro-6-(trifluoromethyl)phenyl)-5-(1H-pyrrol-3-yl)isoxazol-4-yl)methoxy) Benzoic Acid]
2 | 95.5 % remaining | 29.7 % flux | O=C(O)c1ccc(-c2nn(C(=O)c3c(Cl)cccc3C(F)(F)F)c3ccccc23)cc1 [Compound 1, reference compound]
3 | 100 % remaining | 23.0 % flux | O=C(O)c1ccc(OCc2c(-c3c(Cl)cccc3C(F)(F)F)noc2-c2cn[nH]c2)cc1 [Compound 11, 4-((3-(2-Chloro-6-(trifluoromethyl)phenyl)-5-(1H-pyrazol-4-yl)isoxazol-4-yl)methoxy) Benzoic Acid]
4 | 79.1 % remaining | 36.1 % flux | O=C(O)c1ccc(NCc2c(-c3c(Cl)cccc3C(F)(F)F)noc2-c2cc[nH]c2)cc1 [Compound 2, 4-(((3-(2-Chloro-6-(trifluoromethyl)phenyl)-5-(1H-pyrrol-3-yl)isoxazol-4-yl)methyl)amino) Benzoic Acid]
5 | 59.5 % remaining | 40.3 % flux | O=C(O)c1ccc(/C=C/c2c(-c3c(Cl)cccc3C(F)(F)F)noc2-c2cc[nH]c2)cc1 [Compound 6, (E)-4-(2-(3-(2-Chloro-6-(trifluoromethyl)phenyl)-5-(1H-pyrrol-3-yl)isoxazol-4-yl)vinyl) Benzoic Acid]
6 | 97.1 % remaining | 37.3 % flux | O=C(O)c1ccc(OCc2c(-c3c(Cl)cccc3C(F)(F)F)noc2-c2cc[nH]c2)cc1F [Compound 9, 4-((3-(2-Chloro-6-(trifluoromethyl)phenyl)-5-(1H-pyrrol-3-yl)isoxazol-4-yl)methoxy)-2-fluorobenzoic Acid]
7 | 89.5 % remaining | 50.5 % flux | O=C(O)c1ccc(OCc2c(-c3c(Cl)cccc3C(F)(F)F)noc2-c2ccc[nH]2)cc1 [Compound 10, 4-((3-(2-Chloro-6-(trifluoromethyl)phenyl)-5-(1H-pyrrol-2-yl)isoxazol-4-yl)methoxy) Benzoic Acid]
